In PMC5218480 (PLoS ONE, 2017):

Tested on: MV-4-11 cells
Experiment: Gene expression microarray analysis (Affymetrix PrimeView) and GSEA
Type: cell-based, human
Parameters: RFU PODN (11730768_x_at) / Fold change /veh PODN (11730768_x_at) / RFU LINC00158 (11744669_a_at) / Fold change /veh LINC00158 (11744669_a_at) / RFU DUSP10 (11751237_a_at) / Fold change /veh DUSP10 (11751237_a_at) / RFU ID3 (11757404_x_at) / Fold change /veh ID3 (11757404_x_at) / RFU PLEKHG5 (11737974_s_at) / Fold change /veh PLEKHG5 (11737974_s_at) / RFU LRRC4B (11730491_at) / Fold change /veh LRRC4B (11730491_at) / RFU GIMAP4 (11747438_a_at) / Fold change /veh GIMAP4 (11747438_a_at) / RFU KRT8 (11758183_x_at) / Fold change /veh KRT8 (11758183_x_at) / RFU CNN1 (11734310_a_at) / Fold change /veh CNN1 (11734310_a_at) / RFU VPS37D (11726825_at) / Fold change /veh VPS37D (11726825_at) / RFU C10orf10 (11716522_x_at) / Fold change /veh C10orf10 (11716522_x_at) / RFU KIR2DL2 /// KIR2DL4 /// KIR2DL5A /// KIR2DL5B /// KIR2DS1 /// KIR2DS2 /// KIR2DS3 /// KIR2DS4 /// KIR3DL3 /// KIR3DL3 /// KIR3DS1 (11738374_at) / Fold change /veh KIR2DL2 /// KIR2DL4 /// KIR2DL5A /// KIR2DL5B /// KIR2DS1 /// KIR2DS2 /// KIR2DS3 /// KIR2DS4 /// KIR3DL3 /// KIR3DL3 /// KIR3DS1 (11738374_at) / RFU C1QL1 (11718748_at) / Fold change /veh C1QL1 (11718748_at) / RFU TMPRSS4 (11747572_a_at) / Fold change /veh TMPRSS4 (11747572_a_at) / RFU HAMP (11756126_x_at) / Fold change /veh HAMP (11756126_x_at) / RFU RNFT2 (11725882_a_at) / Fold change /veh RNFT2 (11725882_a_at) / RFU NR4A2 (11747474_a_at) / Fold change /veh NR4A2 (11747474_a_at) / RFU ABCC12 (11746883_a_at) / Fold change /veh ABCC12 (11746883_a_at) / RFU TMEM136 (11760407_x_at) / Fold change /veh TMEM136 (11760407_x_at) / RFU CLDN22 /// WWC2 (11732394_at) / Fold change /veh CLDN22 /// WWC2 (11732394_at) / RFU HLA-DPB1 (11760878_x_at) / Fold change /veh HLA-DPB1 (11760878_x_at) / RFU SPINT1 (11716480_a_at) / Fold change /veh SPINT1 (11716480_a_at) / RFU GAP43 (11754022_s_at) / Fold change /veh GAP43 (11754022_s_at) / RFU A4GNT (11735810_at) / Fold change /veh A4GNT (11735810_at) / RFU PRB3 (11715151_x_at) / Fold change /veh PRB3 (11715151_x_at) / RFU TUBB4B (11761932_at) / Fold change /veh TUBB4B (11761932_at) / RFU CAPN14 (11732068_a_at) / Fold change /veh CAPN14 (11732068_a_at) / RFU TMCC2 (11721928_a_at) / Fold change /veh TMCC2 (11721928_a_at) / RFU IRGQ (11745062_a_at) / Fold change /veh IRGQ (11745062_a_at) / RFU FAM174B (11720279_a_at) / Fold change /veh FAM174B (11720279_a_at) / RFU TMPRSS4 (11748680_a_at) / Fold change /veh TMPRSS4 (11748680_a_at) / RFU FAM212B (11763350_a_at) / Fold change /veh FAM212B (11763350_a_at) / RFU PLEKHG5 (11743358_a_at) / Fold change /veh PLEKHG5 (11743358_a_at) / RFU ZSCAN30 (11745921_a_at) / Fold change /veh ZSCAN30 (11745921_a_at) / RFU CMKLR1 (11741424_a_at) / Fold change /veh CMKLR1 (11741424_a_at) / RFU LOC101060620 /// MAPK8IP1 (11723275_at) / Fold change /veh LOC101060620 /// MAPK8IP1 (11723275_at) / RFU SPTSSB (11747773_x_at) / Fold change /veh SPTSSB (11747773_x_at) / RFU PRSS12 (11739890_at) / Fold change /veh PRSS12 (11739890_at) / RFU BIN1 (11741810_x_at) / Fold change /veh BIN1 (11741810_x_at) / RFU WNT11 (11732464_a_at) / Fold change /veh WNT11 (11732464_a_at) / RFU C10orf10 (11716521_a_at) / Fold change /veh C10orf10 (11716521_a_at) / RFU C5orf56 (11738089_at) / Fold change /veh C5orf56 (11738089_at) / RFU CYB561 (11721691_x_at) / Fold change /veh CYB561 (11721691_x_at) / RFU ANKRD19P (11752326_a_at) / Fold change /veh ANKRD19P (11752326_a_at) / RFU OR2T12 /// OR2T33 /// OR2T8 (11738714_s_at) / Fold change /veh OR2T12 /// OR2T33 /// OR2T8 (11738714_s_at) / RFU VCAN (11748164_a_at) / Fold change /veh VCAN (11748164_a_at) / RFU JSRP1 (11732532_at) / Fold change /veh JSRP1 (11732532_at) / RFU KRTAP10-11 (11738290_x_at) / Fold change /veh KRTAP10-11 (11738290_x_at) / RFU MYO3A (11730013_a_at) / Fold change /veh MYO3A (11730013_a_at) / RFU EBF3 (11725865_a_at) / Fold change /veh EBF3 (11725865_a_at) / RFU CAMK2N1 (11719241_x_at) / Fold change /veh CAMK2N1 (11719241_x_at) / RFU C5orf56 (11738088_a_at) / Fold change /veh C5orf56 (11738088_a_at) / RFU OLFML3 (11715873_a_at) / Fold change /veh OLFML3 (11715873_a_at) / RFU LOC100653217 /// NTM (11731650_a_at) / Fold change /veh LOC100653217 /// NTM (11731650_a_at) / RFU MAPK11 (11762145_a_at) / Fold change /veh MAPK11 (11762145_a_at) / RFU FIZ1 (11724087_x_at) / Fold change /veh FIZ1 (11724087_x_at) / RFU OASL (11726364_x_at) / Fold change /veh OASL (11726364_x_at) / RFU SOX15 (11748057_x_at) / Fold change /veh SOX15 (11748057_x_at) / RFU CD79A (11719716_a_at) / Fold change /veh CD79A (11719716_a_at) / RFU HIST1H1D (11736915_at) / Fold change /veh HIST1H1D (11736915_at) / RFU CASKIN2 (11723855_a_at) / Fold change /veh CASKIN2 (11723855_a_at) / RFU LOC730098 (11760151_x_at) / Fold change /veh LOC730098 (11760151_x_at) / RFU OR4N2 (11742367_at) / Fold change /veh OR4N2 (11742367_at) / RFU PRRT2 (11749266_a_at) / Fold change /veh PRRT2 (11749266_a_at) / RFU SNX32 (11753110_a_at) / Fold change /veh SNX32 (11753110_a_at) / RFU CDHR5 (11726645_a_at) / Fold change /veh CDHR5 (11726645_a_at) / RFU RCAN1 (11760418_a_at) / Fold change /veh RCAN1 (11760418_a_at) / RFU FAM167A (11723789_a_at) / Fold change /veh FAM167A (11723789_a_at) / RFU FAM26E (11764081_at) / Fold change /veh FAM26E (11764081_at) / RFU ISYNA1 (11749810_s_at) / Fold change /veh ISYNA1 (11749810_s_at) / RFU ACY1 (11761880_at) / Fold change /veh ACY1 (11761880_at) / RFU 11764098_at / Fold change /veh 11764098_at / RFU SAMD14 (11745864_x_at) / Fold change /veh SAMD14 (11745864_x_at) / RFU NPB (11741838_a_at) / Fold change /veh NPB (11741838_a_at) / RFU TMPRSS6 (11731388_a_at) / Fold change /veh TMPRSS6 (11731388_a_at) / RFU KRTAP10-2 (11738614_at) / Fold change /veh KRTAP10-2 (11738614_at) / RFU ARHGAP8 /// PRR5-ARHGAP8 (11727945_x_at) / Fold change /veh ARHGAP8 /// PRR5-ARHGAP8 (11727945_x_at) / RFU KRTAP5-7 /// NADSYN1 (11734609_at) / Fold change /veh KRTAP5-7 /// NADSYN1 (11734609_at) / RFU RASL12 (11751679_a_at) / Fold change /veh RASL12 (11751679_a_at) / RFU CDKN2B (11736163_a_at) / Fold change /veh CDKN2B (11736163_a_at) / RFU PRF1 (11729649_at) / Fold change /veh PRF1 (11729649_at) / RFU, ZNF638 /// ZNF638-IT1 / Fold change vs veh, ZNF638 /// ZNF638-IT1 / RFU, PANK3 / Fold change vs veh, PANK3 / RFU, SH3YL1 / Fold change vs veh, SH3YL1 / RFU, ZEB2 / Fold change vs veh, ZEB2 / RFU, NRIP1 / Fold change vs veh, NRIP1 / RFU, PTTG1IP / Fold change vs veh, PTTG1IP / RFU, CAPN2 / Fold change vs veh, CAPN2 / RFU, MED14 / Fold change vs veh, MED14 / RFU, SNORA58 / Fold change vs veh, SNORA58 / RFU, C1orf63 / Fold change vs veh, C1orf63 / RFU, LRRFIP1 / Fold change vs veh, LRRFIP1 / RFU, NDUFAF7 / Fold change vs veh, NDUFAF7 / RFU, SLC12A2 / Fold change vs veh, SLC12A2 / RFU, IBTK / Fold change vs veh, IBTK / RFU, ESF1 / Fold change vs veh, ESF1 / Fold change vs veh, TMEM50B / RFU, TAOK1 / Fold change vs veh, TAOK1 / RFU, ACBD3 / Fold change vs veh, ACBD3 / RFU, TMA16 / Fold change vs veh, TMA16 / RFU, RWDD3 / Fold change vs veh, RWDD3 / RFU, BCAT1 / Fold change vs veh, BCAT1 / RFU, EDEM3 / Fold change vs veh, EDEM3 / RFU, TMEM33 / Fold change vs veh, TMEM33 / RFU, WDR75 / Fold change vs veh, WDR75 / RFU, AHCTF1 / Fold change vs veh, AHCTF1 / RFU, TFRC / Fold change vs veh, TFRC / RFU, ZDHHC17 / Fold change vs veh, ZDHHC17 / RFU, NOM1 / Fold change vs veh, NOM1 / RFU, ARL8B / Fold change vs veh, ARL8B / RFU, ZBTB11 / Fold change vs veh, ZBTB11 / RFU, TAMM41 / Fold change vs veh, TAMM41 / RFU, KIAA1704 /// LOC100996395 / Fold change vs veh, KIAA1704 /// LOC100996395 / RFU, ING1 / Fold change vs veh, ING1 / RFU, TRMT61B / Fold change vs veh, TRMT61B / RFU, FUBP3 / Fold change vs veh, FUBP3 / RFU, TP53 / Fold change vs veh, TP53 / RFU, TNKS2 / Fold change vs veh, TNKS2 / RFU, ZFP14 / Fold change vs veh, ZFP14 / RFU, ACTR2 / Fold change vs veh, ACTR2 / RFU, PPP3R1 / Fold change vs veh, PPP3R1 / RFU, PIK3R1 / Fold change vs veh, PIK3R1 / RFU, HNRNPA1 / Fold change vs veh, HNRNPA1 / RFU, RNF170 / Fold change vs veh, RNF170 / RFU, ZNF28 / Fold change vs veh, ZNF28 / RFU, RNGTT / Fold change vs veh, RNGTT / RFU, OGT / Fold change vs veh, OGT / RFU, BRD1 / Fold change vs veh, BRD1 / RFU, MARS / Fold change vs veh, MARS / RFU, ZNF655 / Fold change vs veh, ZNF655 / RFU, FAHD1 / Fold change vs veh, FAHD1 / RFU, BDP1 / Fold change vs veh, BDP1 / RFU, LRRCC1 / Fold change vs veh, LRRCC1 / RFU, ARID1A / Fold change vs veh, ARID1A / RFU, ZNF146 / Fold change vs veh, ZNF146 / RFU, ZNF330 / Fold change vs veh, ZNF330 / RFU, GPN3 / Fold change vs veh, GPN3 / RFU, C9orf123 / Fold change vs veh, C9orf123 / RFU, N4BP2L2 / Fold change vs veh, N4BP2L2 / RFU, ARFIP1 / Fold change vs veh, ARFIP1 / RFU, FAM179B / Fold change vs veh, FAM179B / RFU, BCL10 / Fold change vs veh, BCL10 / RFU, UHRF1BP1L / Fold change vs veh, UHRF1BP1L / RFU, BET1 / Fold change vs veh, BET1 / RFU, CNOT2 / Fold change vs veh, CNOT2 / RFU, ZNF268 / Fold change vs veh, ZNF268 / Fold change vs veh, ZNF507 / RFU, DGCR2 / Fold change vs veh, DGCR2 / RFU, WDSUB1 / Fold change vs veh, WDSUB1 / Fold change vs veh, HSP90B1 /// MIR3652 / RFU, ADSS / Fold change vs veh, ADSS / RFU, GK / Fold change vs veh, GK / RFU, ZNF148 / Fold change vs veh, ZNF148 / RFU, TAF9 / Fold change vs veh, TAF9 / RFU, SLC1A5 / Fold change vs veh, SLC1A5 / RFU, SLMO2 / Fold change vs veh, SLMO2 / RFU, ABCC4 / Fold change vs veh, ABCC4 / RFU, LOC101060439 /// RAP1B / Fold change vs veh, LOC101060439 /// RAP1B / RFU, RFX7 / Fold change vs veh, RFX7 / RFU, GTPBP10 / Fold change vs veh, GTPBP10 / RFU, CNEP1R1 / Fold change vs veh, CNEP1R1 / RFU, BIVM-ERCC5 /// ERCC5 / Fold change vs veh, BIVM-ERCC5 /// ERCC5 / RFU, ILF3 / Fold change vs veh, ILF3 / RFU 11762660_at / Fold change /veh 11762660_at / RFU VCAN (11757783_s_at) / Fold change /veh VCAN (11757783_s_at) / RFU DDX43 (11728927_at) / Fold change /veh DDX43 (11728927_at) / RFU KRT8 (11758188_x_at) / Fold change /veh KRT8 (11758188_x_at) / RFU NKD1 (11759106_at) / Fold change /veh NKD1 (11759106_at) / RFU SRD5A1 (11742802_a_at) / Fold change /veh SRD5A1 (11742802_a_at) / RFU TPSAB1 /// TPSB2 (11721975_s_at) / Fold change /veh TPSAB1 /// TPSB2 (11721975_s_at) / RFU GSTM3 (11746129_a_at) / Fold change /veh GSTM3 (11746129_a_at) / RFU IL23R (11737362_x_at) / Fold change /veh IL23R (11737362_x_at) / RFU TMEM51 (11727254_a_at) / Fold change /veh TMEM51 (11727254_a_at) / RFU PIWIL2 (11732686_x_at) / Fold change /veh PIWIL2 (11732686_x_at) / RFU ORM1 (11744905_x_at) / Fold change /veh ORM1 (11744905_x_at) / RFU CCDC152 (11743942_at) / Fold change /veh CCDC152 (11743942_at) / RFU ECM1 (11717891_a_at) / Fold change /veh ECM1 (11717891_a_at) / RFU IL23R (11748794_a_at) / Fold change /veh IL23R (11748794_a_at) / RFU TNFAIP8L3 (11732012_x_at) / Fold change /veh TNFAIP8L3 (11732012_x_at) / RFU MBOAT4 (11741988_at) / Fold change /veh MBOAT4 (11741988_at) / RFU 11764193_at / Fold change /veh 11764193_at / RFU TMEM53 (11763286_at) / Fold change /veh TMEM53 (11763286_at) / RFU MAGEB2 (11727129_at) / Fold change /veh MAGEB2 (11727129_at) / RFU TMEM200A (11744735_a_at) / Fold change /veh TMEM200A (11744735_a_at) / RFU CCDC152 (11751479_a_at) / Fold change /veh CCDC152 (11751479_a_at) / RFU FAM211A (11726209_a_at) / Fold change /veh FAM211A (11726209_a_at) / RFU RGS16 (11746705_a_at) / Fold change /veh RGS16 (11746705_a_at) / RFU VCAN (11755009_s_at) / Fold change /veh VCAN (11755009_s_at) / RFU RHOB (11743442_s_at) / Fold change /veh RHOB (11743442_s_at) / RFU RGS16 (11720943_a_at) / Fold change /veh RGS16 (11720943_a_at) / RFU RGS16 (11720944_at) / Fold change /veh RGS16 (11720944_at) / RFU, VPS4B / Fold change vs veh, VPS4B / RFU, CREB1 / Fold change vs veh, CREB1 / RFU, DNAJC13 / Fold change vs veh, DNAJC13 / RFU, GNAQ / Fold change vs veh, GNAQ / RFU, CDK5R1 / Fold change vs veh, CDK5R1 / RFU, ZRANB3 / Fold change vs veh, ZRANB3 / RFU, CUL4A / Fold change vs veh, CUL4A / RFU, CCNY / Fold change vs veh, CCNY / RFU, UFL1 / Fold change vs veh, UFL1 / RFU, COG3 / Fold change vs veh, COG3 / RFU, DIAPH2 / Fold change vs veh, DIAPH2 / RFU, SKA2 / Fold change vs veh, SKA2 / RFU, AFF3 / Fold change vs veh, AFF3 / RFU, LMF1 / Fold change vs veh, LMF1 / RFU, IPO11 / Fold change vs veh, IPO11 / RFU, DFFB / Fold change vs veh, DFFB / RFU, FOXP1 / Fold change vs veh, FOXP1 / RFU, CARD8 / Fold change vs veh, CARD8 / RFU, STRN3 / Fold change vs veh, STRN3 / RFU, ADK / Fold change vs veh, ADK / RFU, RASSF2 / Fold change vs veh, RASSF2 / RFU, WIPF1 / Fold change vs veh, WIPF1 / RFU, LARP1B / Fold change vs veh, LARP1B / RFU, RASA1 / Fold change vs veh, RASA1 / RFU, RB1 / Fold change vs veh, RB1 / RFU, PPFIA1 / Fold change vs veh, PPFIA1 / RFU, MAT2A / Fold change vs veh, MAT2A / RFU, CCT5 / Fold change vs veh, CCT5 / RFU, WDR92 / Fold change vs veh, WDR92 / RFU, CUX1 / Fold change vs veh, CUX1 / RFU, TTC7A / Fold change vs veh, TTC7A / RFU, TMEM135 / Fold change vs veh, TMEM135 / RFU, DEPTOR / Fold change vs veh, DEPTOR / RFU, CPM / Fold change vs veh, CPM / RFU, DNAJB6 / Fold change vs veh, DNAJB6 / RFU, CACNA2D3 / Fold change vs veh, CACNA2D3 / RFU, DTX4 / Fold change vs veh, DTX4 / RFU, TFCP2 / Fold change vs veh, TFCP2 / RFU, GMCL1 /// GMCL1P1 / Fold change vs veh, GMCL1 /// GMCL1P1 / RFU, AEBP2 / Fold change vs veh, AEBP2 / RFU, SNHG1 /// SNORD22 /// SNORD25 /// SNORD26 /// SNORD27 /// SNORD28 /// SNORD29 /// SNORD31 / Fold change vs veh, SNHG1 /// SNORD22 /// SNORD25 /// SNORD26 /// SNORD27 /// SNORD28 /// SNORD29 /// SNORD31 / Fold change (Aza/veh), C12orf56 (ProbeSet 11735607_a_at) / Fold change (ACY-1035/veh), C12orf56 (ProbeSet 11735607_a_at) / Fold change (Aza/veh), FGFR1OP (ProbeSet 11751329_s_at) / Fold change (ACY-1035/veh), FGFR1OP (ProbeSet 11751329_s_at) / Fold change (Aza/veh), VPS36 (ProbeSet 11739960_a_at) / Fold change (ACY-1035/veh), VPS36 (ProbeSet 11739960_a_at) / RFU SYPL1 (11715823_x_at) / Fold change /veh SYPL1 (11715823_x_at) / RFU IGFBP7 (11715501_s_at) / Fold change /veh IGFBP7 (11715501_s_at) / RFU REEP3 (11722064_at) / Fold change /veh REEP3 (11722064_at) / RFU IGLL1 (11728026_x_at) / Fold change /veh IGLL1 (11728026_x_at): dose or concentration left out as unconfirmed
Settings: ProbeSet 11727827_x_at; LIST B

Nc1ncn([C@@H]2O[C@H](CO)[C@@H](O)[C@H]2O)c(=O)n1 [azacitidine]
Fold change vs veh, NDUFAF7: 0.98
